According to patent US12285408B2, “Methods and compositions for the treatment of snake bite” (priority 2021, dated 2025):
Read-outs that look alike come from different tables or passages of the source.

Experiments:
[1] = system: procoagulant activities of viper venoms (E. ocellatus, E. carinatus, B. asper, D. russelii); assay: Plasma clotting assay, neutralization of procoagulant venom activity; assay type: biochemical; settings: for IC50: range across all venoms, 100 ng venom, bovine plasma, read-out: IC50, inhibition of procoagulant activity
Text: FIG. 11. SVMP-inhibitors neutralize the in vitro procoagulant activities of several geographically distinct viper venoms. […] The data presented represents the maximum clotting velocity, calculated as the maximum of the first derivative of each clotting curve, from triplicate independent repeat experiments with SEMs, where each technical repeat represents the mean of n≥2 technical replicates. EOC, E. ocellatus; ECAR, E. carinatus; BAS, Bothrops asper, BAR, Bitis arietans; DRUS, Daboia russelii. (B) Neutralization of procoagulant venom activity by four SVMP-inhibitors across four drug concentrations (150 μM to 150 nM). The data is expressed as the maximum clotting velocity at each dose. The negative (PBS) and positive (venom-only) controls are presented as intervals (bottom dashed and top dashed lines, respectively), with the latter representing the mean maximum clotting velocity in these samples±SEM. The data represent triplicate independent repeats with SEMs, where each technical repeat represents the mean of n≥2 technical replicates. Note the different y-axis scales.
Since SVMPs are key toxins associated with causing coagulopathy, we next investigated whether the same peptidomimetic and metal chelating inhibitors could also neutralize the procoagulant bioactivities of viper venoms. To do so, we used a validated kinetic absorbance-based assay monitoring plasma clotting^35 in the presence or absence of venoms and inhibitors (FIG. 11).
(§1) We used a previously developed plasma clotting assay^35 to measure venom-induced coagulation. Briefly, 100 ng of each venom was incubated at 37° C. for 30 min in the presence or absence of inhibitors (150 μM to 150 nM final concentrations). The final reaction consisted of 10 μl venom±inhibitors in PBS, 20 μl 20 mM CaCl2), and 20 μl citrated bovine plasma (VWR). The samples were pipetted in triplicate into 384-well plates, and absorbance monitored at 595 nm for 2 h at 25° C. on an Omega FLUOstar instrument. We calculated the maximum clotting velocity of each of the curves as per clot waveform analysis^67, by calculating the maximum of the first derivative. The means of at least three independent experimental runs for each condition were plotted at each inhibitor concentration with SEMs.

S. miliarius venom = assay: Murine preincubation model of venom lethality, North American pit viper venom; assay type: in vivo, CD-1 mice; settings: 2.5×LD50 S. miliarius venom preincubated with 60 μg of each drug, i.v., 6 h, n=5
Experimental: Thereafter, the same murine animal model was used to explore the efficacy of the same snake venom metalloproteinase and phospholipase A2 inhibiting drugs as solo and combination treatments against North American pit viper venoms. The intravenous median lethal dose (venom LD50) for C. atrox, C. scutulatus, S. miliariius and A. contortrix venoms was previously determined (3.79 μg, 0.17 μg, 4.87 μg and 4.99 μg per mouse, respectively). […] As described above, all experimental doses were prepared to a volume of 200 μl in PBS and incubated at 37° C. for 30 min prior to their intravenous injection via the tail vein. Animals were monitored for 6 h, and euthanized via rising concentrations of CO2 upon observation of previously defined humane end points that are predicators of lethality (e.g., seizure, pulmonary distress, paralysis, hemorrhage). Deaths, time of death, and survivors were recorded; where death/time of death represents the implementation of euthanasia based on defined humane end points.
These snake species were selected for their taxonomic diversity and clinical importance in the USA, namely: 1) Crotalus atrox (Western diamondback), which is found across the southwest USA and into Mexico and is thought to be the most common cause of snakebite envenoming in USA, 2) Crotalus scutulatus (Mojave rattlesnake), which is also found across the southwest USA and into Mexico, 3) Sistrurus miliarius (pygmy rattlesnake), which is found in the South-East USA, and 4) Agkistrodon contortrix (Eastern copperhead), which is found in central and eastern USA. […] The drug treatments consisted of: DMPS, marimastat, or varespladib as solo drug treatments, or a DMPS and varespladib combination, or a marimastat and varespladib combination.

[2] = system: metalloproteinase activity of C. atrox, C. adamanteus and C. horridus venom; assay: In vitro snake venom metalloproteinase assay, North American rattlesnake venoms; assay type: biochemical, Crotalus atrox, Crotalus adamanteus, Crotalus horridus; settings: 25 μM drug, 1 μg venom, range across the three rattlesnake venoms
Text: FIG. 6. […] Error bars represent standard deviation.
The remaining assay protocol with respects to fluorogenic substrate preparation, plate-read settings and data processing was the same as described above.
These species were selected for their clinical importance in the USA, namely: 1) Crotalus atrox (Western diamondback), which is found across the southwest USA and into Mexico and is thought to be the most common cause of snakebite envenoming in USA, 2) Crotalus horridus (Timber rattlesnake), which is found across Eastern and central USA, and is categorised as a Group I medically important snake by the World Health Organization. Furthermore, this species is not included in the immunising mixture of the current FDA-approved CroFab antivenom. 3) Crotalus adamanteus (Eastern diamondback), which is another Group I medically important snake, found in the South-East USA.

[3] = system: D. russelii venom coagulation-related activities; assay: Plasma clotting assay, whole D. russelii venom; assay type: biochemical, Daboia russelii; settings: 150 μM to 150 nM
Experimental: FIG. 12. […] The data is plotted separately for ‘very fast coagulation’, ‘medium coagulation’ and ‘anticoagulation’, based on the slopes of the 0-5 min and 0-20 min readings, and the single endpoint reading at 180 min. The tested inhibitor concentrations are presented alongside the chromatograms. […] The data is presented as the maximal clotting velocity at each concentration, and represents means of triplicate independent repeats with SEMs, where each technical repeat represents the mean of n≥2 technical replicates. The venom-only control (top dashed lines) and the negative control (bottom dashed lines) are presented as intervals and represent the average±SEM observed for the venom-only and PBS controls across all datasets and replicates.
as §1, with “The final reaction consisted of 10 μl venom±inhibitors in PBS, 20 μl 20 mM CaCl2), and 20 μl citrated bovine plasma (VWR).” left out, “The means of at least three independent experimental runs for each condition were plotted at each inhibitor concentration with SEMs.” left out

[4] = cited from earlier work
[5] = cited from earlier work; remark: listed apart in the source

SMILES	IC50 [1]	protection against venom lethality (S. miliarius venom)	inhibition of metalloproteinase activity [2]	effect on procoagulant activity of whole D. russelii venom [3]	oral bioavailability ([4]; human, in vivo, po)	oral bioavailability (words) ([4]; human, in vivo, po)	oral bioavailability (words) ([4]; human, in vivo, po, listed as Marimastat)	half-life ([4]; oral)	time to peak plasma concentrations post-administration ([4]; oral)	side effects ([5]; single doses of up to 800 mg, bidaily 200 mg for 6.5 days, or 75 mg daily for 28 days)	neutralization of procoagulant activities ([1]; E. ocellatus, E. carinatus and B. asper venoms, highest dose 150 μM)	half-life ([4]; delivered by iv infusion)	tolerability ([5]; Phase 1 and 2)	risk of major adverse cardiovascular events ([5]; Phase 2B, same daily dose, >300 patients for >6 months)	risk of myocardial infarction ([5]; Phase 3, acute coronary syndrome patients, 500 mg oral daily)
CNC(=O)[C@@H](NC(=O)[C@H](CC(C)C)[C@H](O)C(=O)NO)C(C)(C)C [marimastat]	0.15 to 1.92 µM	some protection	90.9-99.1%	revealed clear venom anticoagulant effects	70%	excellent oral bioavailability	particularly good oral bioavailability	8 to 10 h	1.5 to 3 h	no notable side effects					
O=S(=O)(O)CC(S)CS (centres unmarked) [DMPS, 2,3-dimercapto-1-propanesulfonic acid]	0.8 to 25.9 µM		88.6-97.8%	ineffective							effective at neutralizing the procoagulant activities				
CCc1c(C(=O)C(N)=O)c2c(OCC(=O)O)cccc2n1Cc1ccccc1 [varespladib]		survived for longer periods of time than the venom only controls				good oral bioavailability						5 h	well tolerated	no greater risk of major adverse cardiovascular events	greater risk of myocardial infarction than those receiving placebo
